From US10758534B2 (Vertex Pharmaceuticals Incorporated, priority 2014, dated 2020)
Like-named read-outs stand apart in the source and are kept apart here.

Target: T1, F508del (Homo sapiens, UniProt P13569, DEL508-508)
T1 construct: expressed in transfected cells
Assay: Protocol 2: FRET membrane potential optical assay (VIPR), identification of correction compounds
Format: cell-based
Method in brief: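 Mouse NIH3T3 cells, stable F508del; cpd 16 hrs, 37° C., serum-free; pos ctrl 27° C. 16 hrs. Rinse in Krebs Ringers, dye load, then add 10 μM forskolin + 20 μM genistein with Cl^−-free (gluconate) medium; depolarization by FRET voltage dyes.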

[1] = F508del CFTR modulator activity, compounds of Table 1, read-out: EC30
[2] = Table 3, compounds of Table 1 as modulators of CFTR activity, protocol not stated

T1 sequence (P13569 with tags, fused parts or gaps DEL508-508): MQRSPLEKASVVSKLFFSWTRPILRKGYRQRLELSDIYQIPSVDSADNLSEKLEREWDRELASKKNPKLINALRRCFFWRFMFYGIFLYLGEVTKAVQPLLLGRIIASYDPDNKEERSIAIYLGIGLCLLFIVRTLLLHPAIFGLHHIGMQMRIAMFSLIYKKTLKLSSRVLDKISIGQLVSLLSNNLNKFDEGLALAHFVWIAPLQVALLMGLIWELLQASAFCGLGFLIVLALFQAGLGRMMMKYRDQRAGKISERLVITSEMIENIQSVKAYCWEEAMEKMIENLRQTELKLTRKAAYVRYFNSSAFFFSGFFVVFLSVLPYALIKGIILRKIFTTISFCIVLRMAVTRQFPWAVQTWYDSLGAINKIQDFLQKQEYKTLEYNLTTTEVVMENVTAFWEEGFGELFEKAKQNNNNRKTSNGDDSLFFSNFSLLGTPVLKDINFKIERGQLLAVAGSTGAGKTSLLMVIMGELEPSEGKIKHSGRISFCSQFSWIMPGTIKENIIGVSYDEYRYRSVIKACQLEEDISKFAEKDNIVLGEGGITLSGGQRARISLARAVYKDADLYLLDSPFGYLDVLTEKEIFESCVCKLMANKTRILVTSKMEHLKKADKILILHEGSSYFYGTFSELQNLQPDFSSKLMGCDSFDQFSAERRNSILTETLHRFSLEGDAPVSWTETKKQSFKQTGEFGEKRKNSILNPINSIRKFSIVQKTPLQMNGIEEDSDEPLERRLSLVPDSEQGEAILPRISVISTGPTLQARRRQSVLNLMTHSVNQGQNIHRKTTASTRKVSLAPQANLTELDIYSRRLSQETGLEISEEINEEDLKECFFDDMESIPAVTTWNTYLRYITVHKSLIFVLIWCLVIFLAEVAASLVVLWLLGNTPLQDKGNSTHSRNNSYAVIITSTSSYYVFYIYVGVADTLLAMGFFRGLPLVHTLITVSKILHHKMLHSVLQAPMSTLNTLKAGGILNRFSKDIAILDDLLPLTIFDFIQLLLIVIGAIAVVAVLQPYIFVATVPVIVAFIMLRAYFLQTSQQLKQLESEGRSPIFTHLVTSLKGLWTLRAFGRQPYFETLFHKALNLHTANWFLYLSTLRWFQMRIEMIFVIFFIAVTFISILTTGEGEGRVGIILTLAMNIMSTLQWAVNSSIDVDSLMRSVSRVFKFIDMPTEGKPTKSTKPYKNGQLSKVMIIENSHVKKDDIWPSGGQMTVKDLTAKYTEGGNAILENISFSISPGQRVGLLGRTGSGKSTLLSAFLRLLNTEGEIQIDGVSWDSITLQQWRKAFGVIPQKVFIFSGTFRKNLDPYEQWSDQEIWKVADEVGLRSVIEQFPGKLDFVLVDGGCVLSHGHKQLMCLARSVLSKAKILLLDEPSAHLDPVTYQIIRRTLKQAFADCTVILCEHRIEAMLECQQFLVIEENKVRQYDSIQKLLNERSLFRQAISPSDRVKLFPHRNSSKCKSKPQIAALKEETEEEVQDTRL

EC30 [1] [nM] | EC30 [2] | Structure (SMILES)
< 3000 | – | COc1cc(C)cc(-c2cnc(N3CC(C)CC3(C)C)c(C(=O)NS(=O)(=O)c3cccc(N)n3)c2)c1 (stereo not drawn) [Compound 2499, N-[(6-amino-2-pyridyl)sulfonyl]-5-(3-methoxy-5-methyl-phenyl)-2-(2,2,4-trimethylpyrrolidin-1-yl)pyridine-3-carboxamide]
< 3000 | – | CC1CN(c2ncccc2C(=O)NS(=O)(=O)c2cccc(Nc3ccc4c(ccn4C)c3)n2)C(C)(C)C1 (stereo not drawn) [Compound 2193, N—[[6-[(1-methylindol-5-yl)amino]-2-pyridyl]sulfonyl]-2-(2,2,4-trimethylpyrrolidin-1-yl)pyridine-3-carboxamide]
< 3000 | – | CC1CN(c2ncccc2C(=O)NS(=O)(=O)c2cccc(N3CCC4CCCCC4C3)n2)C(C)(C)C1 (stereo not drawn) [Compound 2011, N—[[6-(3,4,4a,5,6,7,8,8a-octahydro-1H-isoquinolin-2-yl)-2-pyridyl]sulfonyl]-2-(2,2,4-trimethylpyrrolidin-1-yl)pyridine-3-carboxamide]
< 3000 | – | C[C@@H]1CN(c2nc(-c3cccc(NCC(C)(C)C)n3)ccc2C(=O)NS(=O)(=O)c2cccnc2N)C(C)(C)C1 [Compound 2500, N-[(2-amino-3-pyridyl)sulfonyl]-6-[6-(2,2-dimethylpropylamino)-2-pyridyl]-2-[(4S)-2,2,4-trimethylpyrrolidin-1-yl]pyridine-3-carboxamide]
3000 to 10000 | – | Cc1cccc(-c2ccc(C(=O)NS(=O)(=O)N3CC[C@H](N)C3)c(N3C[C@@H](C)CC3(C)C)n2)c1C [Compound 2225, N-[(3S)-3-aminopyrrolidin-1-yl]sulfonyl-6-(2,3-dimethylphenyl)-2-[(4S)-2,2,4-trimethylpyrrolidin-1-yl]pyridine-3-carboxamide]
< 3000 | – | CC1CN(c2ncccc2C(=O)NS(=O)(=O)c2cccc(N3CCCC3)n2)C(C)(C)C1 (stereo not drawn) [Compound 2561, N-[(6-pyrrolidin-1-yl-2-pyridyl)sulfonyl]-2-(2,2,4-trimethylpyrrolidin-1-yl)pyridine-3-carboxamide]
3000 to 10000 | – | CCCCN1CCCN(c2cccc(S(=O)(=O)NC(=O)c3cccnc3N3CC(C)CC3(C)C)n2)CC1 (stereo not drawn) [Compound 2620, N—[[6-(4-butyl-1,4-diazepan-1-yl)-2-pyridyl]sulfonyl]-2-(2,2,4-trimethylpyrrolidin-1-yl)pyridine-3-carboxamide]
< 3000 | – | C[C@@H]1CN(c2nc(-c3ccccc3OC(F)(F)F)ccc2C(=O)NS(=O)(=O)c2cccnc2N)C(C)(C)C1 [Compound 2539, N-[(2-amino-3-pyridyl)sulfonyl]-6-[12-(trifluoromethoxy)phenyl]-2-[(4S)-2,2,4-trimethylpyrrolidin-1-yl]pyridine-3-carboxamide]
< 3000 | – | CCCCCCN1CCN(c2cccc(S(=O)(=O)NC(=O)c3cccnc3N3CC(C)CC3(C)C)n2)CC1 (stereo not drawn) [Compound 2423, N—[[6-(4-hexylpiperazin-1-yl)-2-pyridyl]sulfonyl]-2-(2,2,4-trimethylpyrrolidin-1-yl)pyridine-3-carboxamide]
< 3000 | – | CC(C)c1ccccc1-c1ccc(C(=O)NS(=O)(=O)c2cccnc2N)c(N2C[C@@H](C)CC2(C)C)n1 [Compound 2172, N-[(2-amino-3-pyridyl)sulfonyl]-6-(2-isopropylphenyl)-2-[(4S)-2,2,4-trimethylpyrrolidin-1-yl]pyridine-3-carboxamide]
< 3000 | – | CC1CN(c2ncccc2C(=O)NS(=O)(=O)c2cccc(Nc3ccc4c(c3)OCCO4)n2)C(C)(C)C1 (stereo not drawn) [Compound 2190, N—[[6-(2,3-dihydro-1,4-benzodioxin-6-ylamino)-2-pyridyl]sulfonyl]-2-(2,2,4-trimethylpyrrolidin-1-yl)pyridine-3-carboxamide]
3000 to 10000 | – | CC(C)OC(=O)Nc1cccc(S(=O)(=O)NC(=O)c2ccc(C3=CCCNC3)nc2N2C[C@@H](C)CC2(C)C)n1 [Compound 2624, isopropyl N—[6-[[6-(1,2,3,6-tetrahydropyridin-5-yl)-2-[(4S)-2,2,4-trimethylpyrrolidin-1-yl]pyridine-3-carbonyl]sulfamoyl]-2-pyridyl]carbamate]
< 3000 | – | CC1CN(c2ncccc2C(=O)NS(=O)(=O)c2cccc(Nc3ccccc3C(F)(F)F)n2)C(C)(C)C1 (stereo not drawn) [Compound 2397, N—[[6-[2-(trifluoromethyl)anilino]-2-pyridyl]sulfonyl]-2-(2,2,4-trimethylpyrrolidin-1-yl)pyridine-3-carboxamide]

Continued, molecule first:

Structure (SMILES) | EC30 [1] [nM] | EC30 [2]
Cc1cc(C)c(Oc2nc(C(C)(C)C)ccc2C(=O)NS(=O)(=O)c2cccc(C(=O)O)c2)c(C)c1 [Compound 205, 3-[[6-tert-butyl-2-(2,4,6-trimethylphenoxy)pyridine-3-carbonyl]sulfamoyl]benzoic acid] | – | ++ (“++” means between 3 uM and 10 uM)
Cc1cc(C)c(Oc2nc(C(C)(C)C)ccc2C(=O)NS(=O)(=O)c2cncc(N)c2)c(C)c1 [Compound 163, N-[(5-amino-3-pyridyl)sulfonyl]-6-tert-butyl-2-(2,4,6-trimethylphenoxy)pyridine-3-carboxamide] | – | +++ (“+++” means <3 uM)
COc1cccnc1S(=O)(=O)NC(=O)c1cc(C(C)(C)C)nn1Cc1c(C)cc(C)cc1C [Compound 44, 5-tert-butyl-N-[(3-methoxy-2-pyridyl)sulfonyl]-2-[(2,4,6-trimethylphenyl)methyl]pyrazole-3-carboxamide] | – | ++ (“++” means between 3 uM and 10 uM)
CC1CCN(c2nc(-c3cc(F)cc(OC(C)C)c3)ccc2C(=O)NS(=O)(=O)c2ccc[nH]c2=O)CC1 [Compound 737, 6-(3-fluoro-5-isopropoxy-phenyl)-2-(4-methyl-1-piperidyl)-N-[(2-oxo-1H-pyridin-3-yl)sulfonyl]pyridine-3-carboxamide] | – | +++ (“+++” means <3 uM)
COc1ccc(-c2ccc(C(=O)NS(=O)(=O)c3cccc(N)n3)c(N3[C@H](C)CC[C@@H]3C)n2)cn1 [Compound 726, N-[(6-amino-2-pyridyl)sulfonyl]-2-[(2S,5R)-2,5-dimethylpyrrolidin-1-yl]-6-(6-methoxy-3-pyridyl)pyridine-3-carboxamide] | – | ++ (“++” means between 3 uM and 10 uM)
CC(C)COc1cccc(-c2cnc(N3CC(C)CC3(C)C)c(C(=O)NS(=O)(=O)c3cccc(N)n3)c2)c1 (stereo not drawn) [Compound 2089, N-[(6-amino-2-pyridyl)sulfonyl]-5-(3-isobutoxyphenyl)-2-(2,2,4-trimethylpyrrolidin-1-yl)pyridine-3-carboxamide] | < 3000 | –
Cc1cc(C)c(Cn2nc(C(C)(C)C)cc2C(=O)NS(=O)(=O)c2cccc(N)n2)c(C)c1 [Compound 173, N-[(6-amino-2-pyridyl)sulfonyl]-5-tert-butyl-2-[(2,4,6-trimethylphenyl)methyl]pyrazole-3-carboxamide] | – | ++ (“++” means between 3 uM and 10 uM)
COc1ncccc1-c1cc(C(=O)NS(=O)(=O)c2cccc(N)c2)n(Cc2c(C)cc(C)cc2C)n1 [Compound 122, N-(3-aminophenyl)sulfonyl-5-(2-methoxy-3-pyridyl)-2-[(2,4,6-trimethylphenyl)methyl]pyrazole-3-carboxamide] | – | ++ (“++” means between 3 uM and 10 uM)
CC(C)COc1cc(F)cc(-c2ccc(C(=O)NS(=O)(=O)c3ccn[nH]3)c(N3CCC(CC#N)CC3)n2)c1 [Compound 556, 2-[4-(cyanomethyl)-1-piperidyl]-6-(3-fluoro-5-isobutoxy-phenyl)-N-(1H-pyrazol-5-ylsulfonyl)pyridine-3-carboxamide] | – | + (“+” means greater than 10 uM)
CC(C)Oc1ccc(-c2ccc(C(=O)NS(=O)(=O)c3cccc(N)n3)c(N3CCC4(CC3)CC4)n2)cn1 [Compound 578, N-[(6-amino-2-pyridyl)sulfonyl]-2-(6-azaspiro[2.5]octan-6-yl)-6-(6-isopropoxy-3-pyridyl)pyridine-3-carboxamide] | – | +++ (“+++” means <3 uM)
CC(C)Oc1cccc(-c2ccc(C(=O)NS(=O)(=O)c3ccc[nH]c3=O)c(N3C[C@@H](C)CC3(C)C)n2)c1 [Compound 2549, 6-(3-isopropoxyphenyl)-N-[(2-oxo-1H-pyridin-3-yl)sulfonyl]-2-[(4S)-2,2,4-trimethylpyrrolidin-1-yl]pyridine-3-carboxamide] | < 3000 | –
Cc1cc(C)c(Cn2c(C(=O)NS(=O)(=O)c3cccc(N)c3)cc3c(C#N)cccc32)c(C)c1 [Compound 306, N-(3-aminophenyl)sulfonyl-4-cyano-1-[(2,4,6-trimethylphenyl)methyl]indole-2-carboxamide] | – | +++ (“+++” means <3 uM)
CC(C)(C)c1cc(C(=O)NS(=O)(=O)c2ccccc2)n(Cc2cccc(-n3cccc3)c2)n1 [Compound 108, N-(benzenesulfonyl)-5-tert-butyl-2-[(3-pyrrol-1-ylphenyl)methyl]pyrazole-3-carboxamide] | – | +++ (“+++” means <3 uM)
CCOc1ccc(F)c(-c2ccc(C(=O)NS(=O)(=O)c3ccc[nH]c3=O)c(N3C[C@@H](C)CC3(C)C)n2)c1 [Compound 2138, 6-(5-ethoxy-2-fluoro-phenyl)-N-[(2-oxo-1H-pyridin-3-yl)sulfonyl]-2-[(4S)-2,2,4-trimethylpyrrolidin-1-yl]pyridine-3-carboxamide] | < 3000 | –
CC(C)COc1cc(F)cc(-c2ccc(C(=O)NS(=O)(=O)c3ccn[nH]3)c(N3CCCC4(COC4)C3)n2)c1 [Compound 519, 6-(3-fluoro-5-isobutoxy-phenyl)-2-(2-oxa-8-azaspiro[3.5]nonan-8-yl)-N-(1H-pyrazol-5-ylsulfonyl)pyridine-3-carboxamide] | – | ++ (“++” means between 3 uM and 10 uM)
CCc1ccc(-c2nc(C(C)(C)C)ccc2C(=O)NS(=O)(=O)c2cccc(N)c2)cc1 [Compound 359, N-(3-aminophenyl)sulfonyl-6-tert-butyl-2-(4-ethylphenyl)pyridine-3-carboxamide] | – | +++ (“+++” means <3 uM)
Cc1cc(C)c(Oc2nc(-c3cccc(F)c3)ccc2C(=O)NS(=O)(=O)c2cccc(N)n2)c(C)c1 [Compound 570, N-[(6-amino-2-pyridyl)sulfonyl]-6-(3-fluorophenyl)-2-(2,4,6-trimethylphenoxy)pyridine-3-carboxamide] | – | +++ (“+++” means <3 uM)
